# Experimental data taken from a melting point compilation (Tetko et al.; mined from patent text by program, amines drawn as free bases though some values may be those of a salt).
row,melting point [°C],SMILES
1,89 to 91,NS(=O)(=O)OCCc1ccccn1
2,197 to 199,Cc1nc(N)c2ncn(CCOc3ccccc3)c2c1C
3,211 to 213,CC(=O)Nn1c(=O)c(=O)[nH]c2ccccc21
4,40 to 42,CCCCCCCCCC[C@@H]1C(=O)OC(C)=C[C@@H]1C(=O)OC
5,85 to 87,CCOC(=O)N1CC=C(c2cc(F)c(C#N)cc2F)CC1
6,180,N#Cc1cc(C(=O)O)ccc1Cl
7,190 to 192,CCCCc1nc2cccc(C)c2c(=O)n1C1CCC(=O)NC1=O (stereo not given)
8,167 to 170,CN1CC(C(Oc2ccccc2N)c2ccccc2)OCC1=O (stereo not given)
9,354 to 356,COc1ccc(-n2nc(O)c3[nH]c4cc(Cl)ccc4c(=O)c3c2=O)c(C)c1
10,171 to 172,Cc1cccc2c(=O)nc(-c3cccc(C(=O)NCCCCCCNC(=O)OC(C)(C)C)n3)sc12
11,110 to 113,CCCCCCCCCCCCCOc1ccc(CNc2ccc(C(=O)O)cc2)cc1
12,104 to 108,CN1CCC(CO)(OCc2ccccc2F)CC1
13,207 to 208,S=C1NCC(Cl)=NN1c1cc(Cl)cc(Cl)c1
14,100,Cc1cccc(Oc2ccc3ccc(N)nc3n2)c1
15,> 295,Cn1c2ccccc2c2oc(C(N)=O)cc(=O)c21
16,97,COc1cc(C(=O)c2ccc(C(F)(F)F)cc2)ccc1O
17,292 to 295,O=C(O)C1Cc2c(c(Cl)cc3c(=O)c4ccccc4oc23)O1 (stereo not given)
18,234 to 238,CN1CCN(c2ccc(Nc3ncc4ccc(-c5ccc(S(C)(=O)=O)cc5)n4n3)cc2)CC1
19,111 to 112,O=C(O)Cc1cc(Br)c2c(c1)CCC(C(F)(F)F)N2 (stereo not given)
20,96 to 98,Cc1c(C)c2c(c(C)c1OCc1ccncc1)C(c1ccc(C(C)C)cc1)C1(CCN(C)CC1)O2 (stereo not given)

row,melting point [°C],SMILES
1,138 to 142,C/C(=C(\C#N)C(N)=S)N1CCCSCC1
2,153 to 155,CCCCCC(CC(=O)Nc1cc(C(N)=O)ccc1C(C)(C)C)c1ccc(C(O)CCC)cc1OC (stereo not given)
3,91 to 93,Cc1cc(-c2ccccc2)n2nc(SC(F)(F)F)nc2n1
4,200,O=C(NC(=O)c1c(Cl)cccc1Cl)Nc1ccc(C(F)(F)F)cc1
5,143 to 146,CC(=O)Nc1nc2c(ncn2CCC(CO)CO)c(=O)[nH]1
6,259,Cn1ncc(C(=O)O)c1C(=O)Nc1ccc2nc(-c3ccccc3)nn2c1
7,127 to 129,CCOCCCOc1ccc(-c2ccc3c(c2)C=C(C(=O)OC)CCN3S(C)(=O)=O)cc1
8,122 to 123,Nc1c(CC(=O)O)cccc1Oc1ccccc1F
9,107 to 109,Oc1cc(OCc2ccccc2)cc(OCc2ccccc2)c1
10,70 to 72,CC(SC(=S)c1cc(C(C)(C)C)c(O)c(C(C)(C)C)c1)c1ccccc1 (stereo not given)
11,176 to 177,CSc1ccc(-c2nn(Cc3ccc(F)cc3F)c(=S)cc2-c2ccc(Cl)cc2)cc1
12,72,COC1OC(=O)CC(C)(C)C1O (stereo not given)
13,64 to 66,CCCCCCCCCCCCCCCC(O)=S
14,142 to 143,COc1ccc(N=C(NC(=S)NCc2cccnc2)c2ccccc2)cc1
15,137 to 141,CCN1C(=O)C(C)(C)C(=O)N(C)c2cc(CN(CCn3ccc4oc(C)cc4c3=O)Cc3ccnnc3)ccc21
16,205 to 206,O=C(O)C1=C(c2ccccc2)c2cc(Br)ccc2CO1
17,228 to 230,O=C(NCC12CC3CC(CC(C3)C1)C2)c1cc(-c2ccccc2C(=O)O)ccc1Cl
18,154 to 157,COc1cc2c(cc1OC)[C@@H]1c3ccc(C)cc3C(=O)N(Cc3ccccc3)[C@H]1CC2 (relative stereo)
19,77 to 79,CCCOc1cc(NC(=O)NC(C)C)ccn1
20,119 to 120,Cc1cc2c(cc1C)N(C)c1cscc1C(=O)N2CCN(C)C

row,melting point [°C],SMILES
1,232 to 235,CC(C)[C@H]1CC[C@H](Nc2ncc(Cc3ccc(O)nc3)c3ncccc23)CC1
2,50 to 52,COC(=O)c1cc(F)c(F)c2c1NC(C)C2 (stereo not given)
3,122 to 123,CC1=C(C(=O)OCC2CCCO2)C(c2cccc([N+](=O)[O-])c2)C(C(=O)OCC2CCCO2)=C(C)N1 (stereo not given)
4,66 to 68,Cc1ccc(C)n1CCN1CCCC1=O
5,283,Cc1cc(-c2cc(C(F)(F)F)n3ncc(C(=O)Nc4cc(S(N)(=O)=O)sc4Cl)c3n2)ccc1C(F)(F)F
6,87 to 88,Nc1c(Cl)cccc1SSc1cccc(Cl)c1N
7,163,Cc1nc(C(C)c2ccccc2)c2c(c1O)COC2 (stereo not given)
8,150,CCOC(=O)C1=C(N)NC(C)=CC1c1ccccc1 (stereo not given)
9,116 to 120,CC1CCN(c2cc3nc(C(C)(C)C)sc3cc2[N+](=O)[O-])CC1
10,179 to 180,Fc1ccc(C2(Cn3ncnc3S)OC2c2ccccc2Cl)cc1 (stereo not given)
11,149 to 150,CCCc1c(OCCCOc2ccc3c(c2CCC)OC(CCC(=O)O)CC3=O)ccc(C(C)=O)c1O (stereo not given)
12,189 to 191,CC(C)n1cnc2c(NCc3ccc(O)cc3O)nc(NC[C@@H](C)O)nc21
13,149 to 150,COCn1ccnc1C(O)(c1ccccc1)c1ccccc1C(C)(C)C (stereo not given)
14,148 to 149,C[C@@H](O[Si](C)(C)C(C)(C)C)[C@@H]1C(=O)N[C@@H]1S(=O)(=O)c1ccc([N+](=O)[O-])cc1[N+](=O)[O-]
15,122 to 125,CCCNC(=O)C1(CCCc2ccccc2N2Cc3ccccc3C2=O)c2ccccc2-c2ccccc21
16,103 to 104,Cc1cc(C)c(C(CO)c2ccccc2)c(O)c1C (stereo not given)
17,85.1,COc1ccc(OS(=O)(=O)c2ccc(C)cc2)c(C(C)C)c1
18,220 to 221,COc1cc2c(N3CCN(C(=O)Nc4ccc(Oc5ccccc5)cc4)CC3)ncnc2cc1OCc1ccccc1

# Further lines, the molecule ahead of its results:
row,SMILES,melting point [°C]
1,CC(C)=CCn1nc(C(=O)c2cccc(O)c2)c2ccccc21,92 to 94
2,COCc1c(C(=O)c2ccccc2)ncc2[nH]c3cccc(Cc4ccccc4Cl)c3c12,147 to 148
3,NS(=O)(=O)Nc1ccc(CCN2CCC(COC(c3ccccc3)c3ccccc3)CC2)cc1,172 to 174
4,O=C(c1ccccc1)c1cccc2c1NCC2,124 to 125
5,CCOC(=O)C1=C(C)NC(N=CCN(C)C)=C(C(=O)OCC)C1c1ccccc1 (stereo not given),126
6,CCNc1ccc(Cl)cc1[N+](=O)[O-],90 to 91
7,CC12CCC(=O)C(CSc3ccccc3)=C1CCC1C2CCC2(C)C1CCC2(C)O (stereo not given),123 to 130
8,Nc1ccc(Cl)cc1NC1CCN(Cc2ccccc2)CC1,108
9,Nc1ccc(Cl)cc1C(O)c1ccccc1OCc1ccccc1 (stereo not given),120 to 121
10,CCOc1ccccc1CNc1nc(N)n2nc(-c3ccco3)nc2n1,243 to 246
11,O=C(NCC12CC3CC(CC(C3)C1)C2)c1cc(NCCNCC(O)c2ccccc2)ccc1Cl (stereo not given),63 to 64
12,CC(=O)OC(c1ccc(Cl)c(Cl)c1)C(Cl)(Cl)Cl (stereo not given),85 to 86
13,O=C1CN2Cc3ccccc3N=C2N1,> 285
14,CNS(=O)(=O)c1ccc(Nc2nc(-c3ccccc3)cc(N3CCC(O)CC3)n2)cc1,280 to 285
15,COC(=O)Nc1nc2c(C(C)C)cc(SC3=C(O)C[C@@](CCc4ccc(O)cc4)(C(C)C)OC3=O)c(C)c2s1,150 to 151
16,O=C1CCC(N2C(=O)c3cccc(OCc4ccc(CN5CCOCC5)cc4)c3C2=O)C(=O)N1 (stereo not given),205 to 207
17,COC(=O)C#CC(=O)c1ccc(Cl)c(Cl)c1,58 to 59
18,Cc1ccc(Cc2cnc(NCCCN(C)c3ncc(Br)cn3)[nH]c2=O)cn1,137 to 140
19,CCn1c(=O)c(=O)[nH]c2cc([N+](=O)[O-])c(-n3cccc3)cc21,> 300
20,Cc1ccc(C2c3c(C)c(NC(=O)OC(C)(C)C)c(C)c(C)c3OC2(C)C)cc1 (stereo not given),124 to 125
21,O=CC1(c2ccc(Cl)cc2)CC1,38 to 41

row,SMILES,melting point [°C]
1,Cc1cc(F)ccc1-c1nc(N[C@H]2CC[C@H](O)CC2)nc2c1ccc(=O)n2-c1c(F)cccc1F,158 to 160
2,COc1ccc2c(c1)C(=O)c1ccc(OC)cc1C2(Cc1ccnc(F)c1)Cc1ccnc(F)c1,151 to 152
3,COC(=O)c1cc(Oc2ccc(F)cc2F)ncc1[N+](=O)[O-],90.2 to 91.4
4,COC(=O)NCCc1ccc(OCC(O)CNC(C)C)nc1 (stereo not given),97 to 99
5,CC(Cc1cccc(C(F)(F)F)c1)N(CC(=O)O)Cc1ccccc1 (stereo not given),80
6,CC1(C)Nc2cc(Br)ccc2-n2cccc21,89 to 91
7,O=C(O)Cc1ccc(OCCCCl)cc1,89 to 91
8,O=C(NCc1csc(C(F)(F)F)n1)c1ccnc(N2CCN(Cc3ccc(F)cc3)C2=O)c1,66 to 68
9,O=S1CCN(c2nc(Cl)nc3c(Cl)ncnc23)CC1,195 to 198
10,O=C1NC(=O)C(Nc2cccc3ccccc23)S1 (stereo not given),195 to 197
11,Cn1cc(OS(C)(=O)=O)c(=O)c2ccc(C(F)(F)F)cc21,218
12,CC(C)CCN1C(=O)C(NC(=O)Oc2ccccc2)C(=O)N(c2ccccc2)c2ccc(Cl)cc21 (stereo not given),190 to 195
13,O=C1CCc2ccc(OCCCCN3CCCN(c4cccc(Cl)c4Cl)CC3)cc2N1,88 to 89
14,CCOC(=O)c1cc(NCc2ccccc2)c(Oc2ccc(OCc3ccccc3)cc2)c(S(N)(=O)=O)c1,166
15,O=C(NNCCc1ccc(O)cc1)OCc1ccccc1,94 to 97
16,CCOC(=O)Cn1c(CC)nc2nc3cc(Cl)ccc3nc21,174 to 175
17,COc1ccc(/C=C(\C#N)c2cc(OC)c(OC)c(OC)c2)cc1[N+](=O)[O-],158 to 159
18,CC1CN(c2ccc(N3CC(CNC(=O)CC#N)OC3=O)cc2F)CCC1=CC#N (stereo not given),102 to 104
19,CCC1CC(=O)N(Cc2ccc(N)cc2)N=C1c1ccc(OC)c(OC)c1 (stereo not given),49
20,COCCN1CCN(CCc2ccc(Nc3ncc4c(n3)-c3ccccc3[C@H](c3ccc(F)cc3)C4)cc2)CC1,195 to 198
21,CCCN1CCN(c2ccc(C(C)=O)cc2)CC1,68 to 70
